Experimental data taken from US9695200B2, “Heterocyclic ITK inhibitors for treating inflammation and cancer” (Confluence Life Sciences, Inc., priority 2015, dated 2017).
Like-named read-outs stand apart in the source and are kept apart here.

Assays:
ITK = ITK (Homo sapiens (Human), UniProt Q08881); test: ITK inhibitor binding potency (LanthaScreen competitive binding assay); settings: TR-FRET tracer-236 displacement, 10 nM ITK; pre-incubation condition not given; read-out: ITK Inhibition IC50
Source text: The ability of candidate compounds to interact with ITK is quantitated by a competitive binding assay using the LanthaScreen technology developed by Life Technologies. This assay is based on the binding of a proprietary, Alexa Fluor® 647-labeled, ATP-competitive kinase inhibitor (kinase tracer-236) to the ITK expression construct in the presence of a Europium-conjugated antibody, resulting in a FRET (fluorescence resonance energy transfer) signal. Displacement of the kinase tracer by compound results in a lower emission ratio upon excitation of the Europium chelate. Candidate compounds are designed as potential irreversible inhibitors of ITK, capable of ligating to an active site cysteine residue resulting in time dependent covalent binding. The time dependent nature of irreversible inhibition is investigated by performing the binding assay with and without a pre-incubation of compound and ITK. […] The inhibitory potency of candidate compounds is measured in 20 mM HEPES pH 7.5, 10 mM MgCl2, 0.01% BSA, 0.0005% Tween-20, and 2% DMSO in the presence of 10 nM ITK, 2 nM Eu-anti-GST antibody, and 50 nM kinase tracer-236 using a 384-well plate format. Background signal is defined in the absence of ITK and uninhibited signal is defined in the presence of vehicle (2% DMSO) alone. Compounds were evaluated in an 11 point dose-response ranging from 20 uM to 0.34 nM. The binding assays are performed under two preincubation conditions to evaluate time dependence of inhibition. For the pre-incubation assay, ITK and Eu-anti-GST antibody are pre-incubated with compound or vehicle for two hours prior to the addition of kinase tracer. The non-preincubated assay is run under conditions where ITK and Eu-anti-GST antibody are added to a mixture of compound and kinase tracer. IC50 values of compounds are determined using a 4 parameter logistical fit of emission ratio as a function of the concentration of compound.

[1] = system: phospho-PLCγ1 in Jurkat cells; test: ITK target modulation PLC-γ assay (phospho-PLCγ1, αCD3-stimulated Jurkat cells); type: cell-based, human; settings: 1 hour compound incubation, αCD3 Dynabeads stimulation 8 minutes, MSD phospho-PLCγ1, read-out: PLC-γ Inhibition IC50
Protocol: Jurkat cells, an immortalized human T-lymphocyte cell line, were maintained in RPMI media, 10% FBS, 1% pen/strep/glutamine (growth media). Cells were plated in growth media plus 50 μM β-mercaptoethanol at 400,000 cells per well of a 96 well plate.
Compounds were serially diluted into DMSO, and then into media to concentrations 10× that of the final assay concentration. Compounds were then added to the cells with the final assay DMSO concentration being 0.1%. Cells were incubated for 1 hour at 37° C.
Following compound incubation, αCD3 Dynabeads were added at 1 bead/cell to each assay well and incubated at 37° C. for 7 minutes. Unstimulated control wells received media only. The plate was then placed on a 96-well magnetic plate for an additional 60 seconds (total assay stimulation time equals 8 minutes). The plate was then dumped and gently patted dry on a paper towel. 50 μl of complete Meso Scale Discovery (MSD) Lysis buffer was then added to each well. Samples were assayed for phospho-PLCγ1 using Meso Scale Discovery technology.
The assay stimulation time has been optimized for detection of Itk kinase-mediated phosphorylation of PLCγ1. The timing and detection reagents for this assay could be adjusted to capture phosphorylation events upstream (e.g., phospho-ZAP70) or downstream of the Itk/PLCγ1 node, provided the appropriate phospho-specific antibodies are available for building of an MSD assay.

ITK, sequence (Q08881 whole entry): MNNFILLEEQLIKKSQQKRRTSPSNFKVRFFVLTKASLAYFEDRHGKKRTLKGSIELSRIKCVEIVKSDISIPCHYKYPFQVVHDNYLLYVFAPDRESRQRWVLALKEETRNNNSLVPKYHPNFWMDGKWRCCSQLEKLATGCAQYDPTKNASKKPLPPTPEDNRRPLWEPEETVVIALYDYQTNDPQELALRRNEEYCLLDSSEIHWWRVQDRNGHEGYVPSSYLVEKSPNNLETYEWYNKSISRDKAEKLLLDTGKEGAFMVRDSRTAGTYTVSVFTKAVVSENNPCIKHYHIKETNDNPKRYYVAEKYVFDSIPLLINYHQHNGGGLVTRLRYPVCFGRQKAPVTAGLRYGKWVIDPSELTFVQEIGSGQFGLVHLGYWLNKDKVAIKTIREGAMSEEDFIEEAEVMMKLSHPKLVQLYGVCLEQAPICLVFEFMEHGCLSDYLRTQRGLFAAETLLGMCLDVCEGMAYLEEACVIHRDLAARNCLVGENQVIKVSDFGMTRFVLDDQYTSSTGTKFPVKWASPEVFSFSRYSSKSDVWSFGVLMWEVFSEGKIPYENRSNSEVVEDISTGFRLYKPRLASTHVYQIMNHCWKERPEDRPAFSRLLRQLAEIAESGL

Compound	IC50 (ITK) [nM]	IC50 ([1]; Homo sapiens) [nM]	IC50 [1] [nM]
C=CC(=O)NC1CN(c2cnc3[nH]cc(-c4ccnc(NC)c4)c3c2)C1 [Example 36, N-(1-(3-(2-(methylamino)pyridin-4-yl)-1H-pyrrolo[2,3-b]pyridin-5-yl)azetidin-3-yl)acrylamide]	≤ 1000	> 5000	
C=CC(=O)Nc1cccc(-c2cnc3[nH]cc(-c4c[nH]c(=O)c5ccccc45)c3c2)c1 [Example 69, N-(3-(3-(1-oxo-1,2-dihydroisoquino-lin-4-yl)-1H-pyrrolo[2,3-b]pyridin-5-yl)phenyl)acryl-amide]	≤ 1000	> 5000	
CN(C)C/C=C/C(=O)Nc1cccc(-c2cnc3[nH]cc(-c4ccncc4)c3c2)c1 [Example 24, (E)-4-(dimethylamino)-N-(3-(3-(pyridin-4-yl)-1H-pyrrolo[2,3-b]pyridin-5-yl)phenyl)but-2-enamide]	≤ 1000	< 1000	
C=CC(=O)Nc1cccc(-c2cnc3[nH]cc(-c4cc(OC)ncn4)c3c2)c1 [Example 39, N-(3-(3-(6-methoxypyrimi-din-4-yl)-1H-pyrrolo[2,3-b]pyridin-5-yl)phenyl)acryl-amide]	≤ 1000	1000 to 5000	
C=CC(=O)Nc1cccc(-c2cnc3[nH]cc(-c4cn(C)c(=O)c5ccccc45)c3c2)c1 [Example 72, N-(3-(3-(2-methyl-1-oxo-1,2-dihydroisoquino-lin-4-yl)-1H-pyrrolo[2,3-b]pyridin-5-yl)phenyl)acryl-amide]	≤ 1000	< 1000	
C=CC(=O)Nc1cncc(-c2cnc3[nH]cc(-c4ccc(=O)n(C)c4)c3c2)c1 [Example 17, N-(5-(3-(1-methyl-6-oxo-1,6-dihydropyridin-3-yl)-1H-pyrrolo[2,3-b]pyridin-5-yl)pyridin-3-yl)acrylamide]	≤ 1000	> 5000	
N-(6-methoxy- 4-(3-(2- methoxypyridin- 4-yl)-1H- pyrrolo[2,3- b]pyridin-5- yl)pyridin-2- yl)methacryl- amide [Example 68]	> 1000		> 5000
CN(C)C/C=C/C(=O)Nc1cccc(-c2cnc3[nH]cc(-c4ccc(=O)n(C)c4)c3c2)c1 [Example 34, (E)-4-(dimethylamino)-N-(3-(3-(1-methyl-6-oxo-1,6-dihydropyridin-3-yl)-1H-pyrrolo[2,3-b]pyridin-5-yl)phenyl)but-2-enamide]	> 1000	> 5000	
CN(C)C/C=C/C(=O)Nc1cccc(-c2cnc3[nH]cc(-c4cccnc4)c3c2)c1 [Example 84, (E)-4-(dimethylamino)-N-(3-(3-(pyridin-3-yl)-1H-pyrrolo[2,3-b]pyridin-5-yl)phenyl)but-2-enamide]	≤ 1000	1000 to 5000	
N#C/C(=C\c1cccc(-c2cnc3[nH]cc(-c4ccncc4)c3c2)c1)C(N)=O [Example 8, (E)-2-Cyano-3-(3-(3-(pyridin-4-yl)-1H-pyrrolo[2,3-b]pyridin-5-yl)phenyl)acrylamide]	≤ 1000	1000 to 5000	
C=CC(=O)Nc1cc(-c2cnc3[nH]cc(-c4ccnc(OC)c4)c3c2)cc(OC(C)C)n1 [Example 45, N-(6-isopropoxy-4-(3-(2-methoxypyridin-4-yl)-1H-pyrrolo[2,3-b]pyridin-5-yl)pyridin-2-yl)acrylamide]	≤ 1000	1000 to 5000	
C=CC(=O)NC1CN(c2cnc3[nH]cc(-c4ccncc4)c3c2)C1 [Example 10, N-(1-(3-(Pyridin-4-yl)-1H-pyrrolo[2,3-b]pyridin-5-yl)azetidin-3-yl)acrylamide]	≤ 1000	> 5000	
C=CC(=O)N[C@H]1CCN(c2cnc3[nH]cc(-c4ccncc4)c3c2)C1 [Example 14, (S)-N-(1-(3-(pyridin-4-yl)-1H-pyrrolo[2,3-b]pyridin-5-yl)pyrrolidin-3-yl)acrylamide]	≤ 1000	> 5000	
O=C(/C=C/CN1CCOCC1)Nc1cccc(-c2cnc3[nH]cc(-c4ccncc4)c3c2)c1 [Example 23, (E)-4-morpholino-N-(3-(3-(pyridin-4-yl)-1H-pyrrolo[2,3-b]pyridin-5-yl)phenyl)but-2-enamide]	≤ 1000	1000 to 5000	
C=C(C)C(=O)Nc1cccc(-c2cnc3[nH]cc(-c4ccnc(OC)c4)c3c2)c1 [Example 81, N-(3-(3-(2-methoxypyridin-4-yl)-1H-pyrrolo[2,3-b]pyridin-5-yl)phenyl)meth-acrylamide]	> 1000	> 5000	
CN(C)C/C=C/C(=O)Nc1cccc(-c2cnc3[nH]cc(-c4ccc(=O)n(CC5CC5)c4)c3c2)c1 [Example 90, (E)-N-(3-(3-(1-(cyclopropyl-methyl)-6-oxo-1,6-dihydropyridin-3-yl)-1H-pyrrolo[2,3-b]pyridin-5-yl)phenyl)-4-(dimethylamino) but-2-enamide]	≤ 1000	> 5000	
C=CC(=O)Nc1cncc(-c2cnc3[nH]cc(-c4ccnc(C)c4)c3c2)c1 [Example 28, N-(5-(3-(2-methylpyridin-4-yl)-1H-pyrrolo[2,3-b]pyridin-5-yl)pyridin-3-yl)acrylamide]	≤ 1000	< 1000	

Second part, the compound after the results:

IC50 (ITK) [nM]	IC50 ([1]; Homo sapiens) [nM]	IC50 [1] [nM]	Compound
> 1000	< 1000		C=CC(=O)Nc1cccc(-c2cnc3[nH]cc(-c4ccc(C(=O)Nc5ccc(C)cc5C)cc4)c3c2)c1 [Example 67, 4-(5-(3-acrylamidophen-yl)-1H-pyrrolo[2,3-b]pyridin-3-yl)-N-(2,4-dimethylphenyl) benzamide]
≤ 1000	> 5000		COc1cc(-c2c[nH]c3ncc(-c4cccc(/C=C(\C#N)C(N)=O)c4)cc23)ccn1 [Example 9, (E)-2-Cyano-3-(3-(3-(2-methoxypyridin-4-yl)-1H-pyrrolo[2,3-b]pyridin-5-yl)phenyl)acrylamide]
≤ 1000	< 1000		C=CC(=O)Nc1cc(-c2cnc3[nH]cc(-c4ccnc(OC)c4)c3c2)cc(C(F)(F)F)c1 [Example 11, N-(3-(3-(2-Methoxypyridin-4-yl)-1H-pyrrolo[2,3-b]pyridin-5-yl)-5-(trifluoromethyl)phenyl)acrylamide]
≤ 1000	1000 to 5000		COc1cc(-c2c[nH]c3ncc(-c4cccc(NC(=O)/C=C/CN(C)C)c4)cc23)ccn1 [Example 37, (E)-4-(dimethylamino)-N-(3-(3-(2-methoxypyridin-4-yl)-1H-pyrrolo[2,3-b]pyridin-5-yl)phenyl)but-2-enamide]
> 1000	> 5000		C=CC(=O)Nc1cccc(-c2cnc3[nH]cc(-c4cn(CC5CC5)c(=O)c5ccccc45)c3c2)c1 [Example 86, N-(3-(3-(2-(cyclopropyl-methyl)-1-oxo-1,2-dihydroisoquino-lin-4-yl)-1H-pyrrolo[2,3-b]pyridin-5-yl)phenyl)acryl-amide]
≤ 1000	> 5000		C=CC(=O)NC1CN(c2cnc3[nH]cc(-c4ccccc4)c3c2)C1 [Example 1, N-(1-(3-Phenyl-1H-pyrrolo[2,3-b]pyridin-5-yl)azetidin-3-yl)acrylamide]
≤ 1000	> 5000		C=CC(=O)NC1CN(c2cnc3[nH]cc(-c4ccnc(C)c4)c3c2)C1 [Example 4, N-(1-(3-(2-Methylpyridin-4-yl)-1H-pyrrolo[2,3-b]pyridin-5-yl)azetidin-3-yl)acrylamide]
≤ 1000	> 5000		CN(C)C/C=C/C(=O)Nc1cccc(-c2cnc3[nH]cc(-c4cccc(C#N)c4)c3c2)c1 [Example 78, (E)-N-(3-(3-(3-cyanophenyl)-1H-pyrrolo[2,3-b]pyridin-5-yl)phenyl)-4-(dimethylamino) but-2-enamide]
